Reference: ChEMBL document CHEMBL4828735, “Discovery of N-((3S,4S)-4-(3,4-Difluorophenyl)piperidin-3-yl)-2-fluoro-4-(1-methyl-1H-pyrazol-5-yl)benzamide (Hu7691), a Potent and Selective Akt Inhibitor That Enables Decrease of Cutaneous Toxicity” (J Med Chem, 2021)
pIC50: −log10 of the molar value.

How the values were obtained:
[1] = target: RAC-alpha serine/threonine-protein kinase (Homo sapiens, UniProt P31749); test: Inhibition of N-terminal GST-tagged human AKT1 (104 to 408 residues) expressed in baculovirus infected Sf21 cells incubated for 1 hr in presence of ATP by mobility shift assay
HGC-27 = test: Antiproliferative activity against human HGC-27 cells assessed as inhibition of cell growth incubated for 72 hrs by SRB assay; type: functional, cell-based; conditions: HGC-27, 72 h
786-0 = test: Antiproliferative activity against human 786-0 cells assessed as inhibition of cell growth incubated for 72 hrs by SRB assay; type: functional, cell-based; conditions: 786-0, 72 h
KHOS/NP = test: Antiproliferative activity against human KHOS cells assessed as inhibition of cell growth incubated for 72 hrs by SRB assay; type: functional, cell-based
hERG (KCNH2) = hERG (KCNH2) (Homo sapiens, UniProt Q12809); test: Inhibition of human ERG expressed in HEK293 cells at 3 uM by whole cell patch clamp method relative to control; type: cell-based; conditions: HEK293 cells expressing hERG
Chain of hERG (KCNH2) (Q12809 whole entry): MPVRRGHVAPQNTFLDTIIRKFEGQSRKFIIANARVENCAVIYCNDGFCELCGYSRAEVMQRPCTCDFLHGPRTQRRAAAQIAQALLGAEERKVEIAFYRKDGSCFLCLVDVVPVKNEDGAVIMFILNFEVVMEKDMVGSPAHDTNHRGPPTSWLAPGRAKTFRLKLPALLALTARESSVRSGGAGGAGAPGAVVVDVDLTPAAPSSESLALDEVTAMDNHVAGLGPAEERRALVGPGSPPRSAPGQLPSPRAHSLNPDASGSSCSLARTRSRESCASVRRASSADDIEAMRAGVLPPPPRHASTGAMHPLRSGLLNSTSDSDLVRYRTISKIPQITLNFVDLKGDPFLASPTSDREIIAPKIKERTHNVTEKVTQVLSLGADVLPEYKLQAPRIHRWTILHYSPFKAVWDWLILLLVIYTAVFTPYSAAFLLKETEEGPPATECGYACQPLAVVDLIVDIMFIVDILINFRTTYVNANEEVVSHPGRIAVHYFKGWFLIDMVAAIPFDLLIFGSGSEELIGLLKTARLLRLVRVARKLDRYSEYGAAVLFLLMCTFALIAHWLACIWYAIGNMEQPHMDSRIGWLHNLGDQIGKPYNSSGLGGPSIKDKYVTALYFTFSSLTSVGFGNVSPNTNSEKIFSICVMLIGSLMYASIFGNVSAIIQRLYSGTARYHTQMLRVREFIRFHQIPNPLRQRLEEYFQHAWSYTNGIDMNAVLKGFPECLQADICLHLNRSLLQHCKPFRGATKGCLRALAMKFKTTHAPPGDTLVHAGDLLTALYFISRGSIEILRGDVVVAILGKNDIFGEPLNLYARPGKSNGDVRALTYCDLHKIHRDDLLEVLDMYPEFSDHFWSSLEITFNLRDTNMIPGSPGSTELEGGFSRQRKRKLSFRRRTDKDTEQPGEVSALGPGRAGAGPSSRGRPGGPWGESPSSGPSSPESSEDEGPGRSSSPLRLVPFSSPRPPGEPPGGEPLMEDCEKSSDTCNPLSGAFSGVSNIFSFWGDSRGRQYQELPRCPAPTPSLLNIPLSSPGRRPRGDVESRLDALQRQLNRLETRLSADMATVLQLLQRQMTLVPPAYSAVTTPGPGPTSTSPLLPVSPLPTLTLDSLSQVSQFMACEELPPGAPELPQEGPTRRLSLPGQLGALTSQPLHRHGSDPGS

Chain of RAC-alpha serine/threonine-protein kinase (P31749 whole entry, the tested form may be a part): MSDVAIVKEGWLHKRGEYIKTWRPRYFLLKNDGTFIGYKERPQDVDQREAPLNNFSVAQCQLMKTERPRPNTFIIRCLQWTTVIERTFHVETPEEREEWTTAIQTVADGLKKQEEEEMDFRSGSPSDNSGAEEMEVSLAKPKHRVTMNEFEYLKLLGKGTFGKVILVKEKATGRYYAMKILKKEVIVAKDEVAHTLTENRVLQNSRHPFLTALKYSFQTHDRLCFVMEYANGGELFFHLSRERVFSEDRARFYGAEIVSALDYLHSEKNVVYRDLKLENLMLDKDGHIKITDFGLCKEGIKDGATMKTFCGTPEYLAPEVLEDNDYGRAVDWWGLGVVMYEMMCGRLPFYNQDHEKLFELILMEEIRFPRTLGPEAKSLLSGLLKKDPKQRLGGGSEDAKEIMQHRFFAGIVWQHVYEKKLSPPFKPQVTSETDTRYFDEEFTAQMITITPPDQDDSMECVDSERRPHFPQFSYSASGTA

| Structure (SMILES) | pIC50 [1] | pIC50 (HGC-27) | pIC50 (786-0) | pIC50 (KHOS/NP) | inhibition at 3 µM (hERG (KCNH2)) [%] |
| --- | --- | --- | --- | --- | --- |
| Cn1nccc1-c1cc(F)c(C(=O)N[C@@H]2CNCC[C@H]2c2ccc(F)c(F)c2)c(Cl)c1 | 7.33 | 5.77 | 5.66 | 5.41 | – |
| Cn1nccc1-c1ccc(C(=O)N[C@@H]2CNCC[C@H]2c2cc(F)cc(F)c2)cc1F | 8.74 | 6.82 | 6.00 | 5.14 | 26.4 |
| Cn1ncc(Cl)c1-c1cc(F)c(C(=O)N[C@@H]2CNCC[C@H]2c2ccc(F)c(F)c2)c(Cl)c1 | 6.85 | 5.51 | 5.50 | 5.44 | – |
| O=C(N[C@@H]1CNCC[C@H]1c1ccc(F)c(F)c1)c1ccc(-c2ccn[nH]2)cc1F | 7.08 | 5.36 | 5.15 | 4.97 | – |
| Cn1nccc1-c1cc(F)c(C(=O)N[C@@H]2CNCC[C@H]2c2ccc(F)c(F)c2)cc1F | 8.04 | 5.84 | 5.30 | 4.74 | 27.2 |
| Cn1nccc1-c1ccc(C(=O)N[C@@H]2CNCC[C@H]2c2cc(F)cc(F)c2)c(Cl)c1 | 7.82 | 5.91 | 5.42 | 4.93 | – |
| Cn1nccc1-c1cc(F)c(C(=O)N[C@@H]2CNCC[C@H]2c2ccc(F)cc2)c(F)c1 | 6.97 | 5.14 | 4.59 | 4.54 | – |
| Cn1nccc1-c1ccc(C(=O)N[C@@H]2CNCC[C@H]2c2ccc(F)c(F)c2)c(Cl)c1 | 7.62 | 5.85 | 5.39 | 4.93 | – |
| Cn1ncc(Br)c1-c1cc(F)c(C(=O)N[C@@H]2CNCC[C@H]2c2ccc(F)c(F)c2)c(F)c1 | 7.02 | 5.54 | 5.45 | 5.30 | – |
| Cn1nccc1-c1ccc(C(=O)N[C@@H]2CNCC[C@H]2c2cc(F)cc(F)c2)c(F)c1 | 8.34 | 6.29 | 5.65 | 4.77 | 6.4 |
